Assay results: ChEMBL document CHEMBL4813981, “Synthesis and in vitro antibacterial activity of new aminothiazole-oximepiperidone cephalosporins” (2021)
≈ marks a conversion by molar mass, not a printed value.

Tests used:
Assay type in all cases: functional
[1] = system: Enterococcus faecalis; test: Antibacterial activity against Enterococcus faecalis ATCC 51299 assessed as reduction in bacterial growth
[2] = system: Escherichia coli; test: Antibacterial activity against Escherichia coli ATCC 25922 assessed as reduction in bacterial growth
[3] = system: Escherichia coli; test: Antibacterial activity against Escherichia coli ATCC 35218 assessed as reduction in bacterial growth
[4] = system: Escherichia coli; test: Antibacterial activity against Escherichia coli NCTC 13353 assessed as reduction in bacterial growth
[5] = system: Escherichia coli; test: Antibacterial activity against Escherichia coli 15-3 overexpressing extended spectrum beta-lactamases assessed as reduction in bacterial growth
[6] = system: Escherichia coli; test: Antibacterial activity against Escherichia coli 15-4 overexpressing extended spectrum beta-lactamases assessed as reduction in bacterial growth
[7] = system: Escherichia coli; test: Antibacterial activity against Escherichia coli 15-5 overexpressing extended spectrum beta-lactamases assessed as reduction in bacterial growth
[8] = system: Klebsiella pneumoniae; test: Antibacterial activity against Klebsiella pneumoniae ATCC 700603 assessed as reduction in bacterial growth
[9] = system: Klebsiella pneumoniae; test: Antibacterial activity against Klebsiella pneumoniae ATCC BAA-1705 assessed as reduction in bacterial growth
[10] = system: Klebsiella pneumoniae; test: Antibacterial activity against Multidrug resistant Klebsiella pneumoniae KR 15-1 assessed as reduction in bacterial growth
[11] = system: Klebsiella pneumoniae; test: Antibacterial activity against Multidrug resistant Klebsiella pneumoniae KR 15-2 assessed as reduction in bacterial growth
[12] = system: Klebsiella pneumoniae; test: Antibacterial activity against Multidrug resistant Klebsiella pneumoniae KR 15-3 assessed as reduction in bacterial growth
[13] = system: Acinetobacter baumannii; test: Antibacterial activity against Acinetobacter baumannii NCTC 13304 assessed as reduction in bacterial growth
[14] = system: Acinetobacter baumannii; test: Antibacterial activity against Multidrug resistant Acinetobacter baumannii AR 15-2 assessed as reduction in bacterial growth
[15] = system: Acinetobacter baumannii; test: Antibacterial activity against Multidrug resistant Acinetobacter baumannii AR 15-3 assessed as reduction in bacterial growth
[16] = system: Acinetobacter baumannii; test: Antibacterial activity against Multidrug resistant Acinetobacter baumannii AR 15-4 assessed as reduction in bacterial growth
[17] = system: Pseudomonas aeruginosa; test: Antibacterial activity against Pseudomonas aeruginosa ATCC 27853 assessed as reduction in bacterial growth
[18] = system: Enterococcus faecalis; test: Antibacterial activity against Enterococcus faecalis ATCC 51299 assessed as reduction in bacterial growth in the presence of Avibactam
[19] = system: Escherichia coli; test: Antibacterial activity against Escherichia coli ATCC 25922 assessed as reduction in bacterial growth in the presence of Avibactam
[20] = system: Escherichia coli; test: Antibacterial activity against Escherichia coli ATCC 35218 assessed as reduction in bacterial growth in the presence of Avibactam
[21] = system: Escherichia coli; test: Antibacterial activity against Escherichia coli NCTC 13353 assessed as reduction in bacterial growth in the presence of Avibactam
[22] = system: Escherichia coli; test: Antibacterial activity against Escherichia coli 15-3 overexpressing extended spectrum beta-lactamases assessed as reduction in bacterial growth in the presence of Avibactam
[23] = system: Escherichia coli; test: Antibacterial activity against Escherichia coli 15-4 overexpressing extended spectrum beta-lactamases assessed as reduction in bacterial growth in the presence of Avibactam
[24] = system: Escherichia coli; test: Antibacterial activity against Escherichia coli 15-5 overexpressing extended spectrum beta-lactamases assessed as reduction in bacterial growth in the presence of Avibactam
[25] = system: Klebsiella pneumoniae; test: Antibacterial activity against Klebsiella pneumoniae ATCC 700603 assessed as reduction in bacterial growth in the presence of Avibactam
[26] = system: Klebsiella pneumoniae; test: Antibacterial activity against Klebsiella pneumoniae ATCC BAA-1705 assessed as reduction in bacterial growth in the presence of Avibactam
[27] = system: Klebsiella pneumoniae; test: Antibacterial activity against Multidrug resistant Klebsiella pneumoniae KR 15-1 assessed as reduction in bacterial growth in the presence of Avibactam
[28] = system: Klebsiella pneumoniae; test: Antibacterial activity against Multidrug resistant Klebsiella pneumoniae KR 15-2 assessed as reduction in bacterial growth in the presence of Avibactam
[29] = system: Klebsiella pneumoniae; test: Antibacterial activity against Multidrug resistant Klebsiella pneumoniae KR 15-3 assessed as reduction in bacterial growth in the presence of Avibactam
[30] = system: Acinetobacter baumannii; test: Antibacterial activity against Acinetobacter baumannii NCTC 13304 assessed as reduction in bacterial growth in the presence of Avibactam
[31] = system: Acinetobacter baumannii; test: Antibacterial activity against Multidrug resistant Acinetobacter baumannii AR 15-2 assessed as reduction in bacterial growth in the presence of Avibactam
[32] = system: Acinetobacter baumannii; test: Antibacterial activity against Multidrug resistant Acinetobacter baumannii AR 15-3 assessed as reduction in bacterial growth in the presence of Avibactam
[33] = system: Acinetobacter baumannii; test: Antibacterial activity against Multidrug resistant Acinetobacter baumannii AR 15-4 assessed as reduction in bacterial growth in the presence of Avibactam
[34] = system: Pseudomonas aeruginosa; test: Antibacterial activity against Pseudomonas aeruginosa ATCC 27853 assessed as reduction in bacterial growth in the presence of Avibactam

Structure (SMILES) | MIC [1] | MIC [2] | MIC [3] | MIC [4] | MIC [5] | MIC [6] | MIC [7] | MIC [8] | MIC [9] | MIC [10] | MIC [11] | MIC [12] | MIC [13] | MIC [14] | MIC [15] | MIC [16] | MIC [17] | other results
C/C=C/C1=C(C(=O)O)N2C(=O)[C@@H](NC(=O)/C(=N\OCc3cc(=O)c(O)cn3O)c3csc(N)n3)[C@H]2SC1 | > 64 µg/mL | 1 µg/mL (≈ 1.82 µM) | 1 µg/mL (≈ 1.82 µM) | > 64 µg/mL | > 64 µg/mL | > 64 µg/mL | > 64 µg/mL | 64 µg/mL (≈ 117 µM) | 64 µg/mL (≈ 117 µM) | > 64 µg/mL | > 64 µg/mL | > 64 µg/mL | > 64 µg/mL | > 64 µg/mL | > 64 µg/mL | > 64 µg/mL | 16 µg/mL (≈ 29.2 µM) | –
COCC1=C(C(=O)O)N2C(=O)[C@@H](NC(=O)/C(=N\OCc3cc(=O)c(O)cn3O)c3csc(N)n3)[C@H]2SC1 | > 64 µg/mL | 2 µg/mL (≈ 3.62 µM) | 0.25 µg/mL (≈ 0.452 µM) | > 64 µg/mL | > 64 µg/mL | > 64 µg/mL | > 64 µg/mL | 64 µg/mL (≈ 116 µM) | > 64 µg/mL | > 64 µg/mL | > 64 µg/mL | > 64 µg/mL | > 64 µg/mL | > 64 µg/mL | > 64 µg/mL | > 64 µg/mL | 2 µg/mL (≈ 3.62 µM) | –
Nc1nc(/C(=N/OCc2cc(=O)c(O)cn2O)C(=O)N[C@@H]2C(=O)N3C(C(=O)O)=C(Cl)CS[C@H]23)cs1 | > 64 µg/mL | 2 µg/mL (≈ 3.68 µM) | 0.5 µg/mL (≈ 0.921 µM) | > 64 µg/mL | > 64 µg/mL | > 64 µg/mL | > 64 µg/mL | > 64 µg/mL | > 64 µg/mL | > 64 µg/mL | > 64 µg/mL | > 64 µg/mL | > 64 µg/mL | > 64 µg/mL | > 64 µg/mL | > 64 µg/mL | 4 µg/mL (≈ 7.37 µM) | MIC [18]: > 64 µg/mL; MIC [19]: 0.125 µg/mL; MIC [20]: 0.125 µg/mL; MIC [21]: 1 µg/mL; MIC [22]: 1 µg/mL; MIC [23]: 1 µg/mL; MIC [24]: 0.5 µg/mL; MIC [25]: > 64 µg/mL; MIC [26]: 8 µg/mL; MIC [27]: 2 µg/mL; MIC [28]: 1 µg/mL; MIC [29]: 1 µg/mL; MIC [30]: 32 µg/mL; MIC [31]: 16 µg/mL; MIC [32]: 8 µg/mL; MIC [33]: 8 µg/mL; MIC [34]: 1 µg/mL
